Measured values reported in US20230340127A1, “METHODS AND COMPOSITIONS FOR CANCER TREATMENT BY INHIBITION OF FBXO44” (Sanford Burnham Prebys Medical Discovery Institute, priority 2022, published 2023).

Columns and labels:
[1] = tested on: HMECs and primary astrocytes; test: Viability of normal cells after F5446 treatment; type: cell-based, human; conditions: F5446 for 48 hrs (FIG. 9G)
Description: To assess whether this epigenetic regulatory pathway could potentially be targeted for cancer treatment, SUV39H1 and its chemical inhibitor F5446 were used to perform experiments. IF, qRT-PCR, and growth curve experiments were performed as described in previous examples. Human mammary epithelial cells (HMECs) and primary astrocytes were also used in the experiments. HMECs (Lonza, #CC-2551) were cultured in MEGM BulletKit Medium (Lonza, #CC-3150). Primary astrocytes were cultured Astrocyte Medium (ScienCell, #1801) and cells were incubated at 37° C. in 5% CO2. All cells were incubated at 37° C. in 5% CO2. The cell cultures were authenticated by short tandem repeat (STR) analysis.
To establish the potential of a therapeutic index for FBXO44/SUV39H1, the role of FBXO44/SUV39H1 in RE silencing in normal cells was investigated using human mammary epithelial cells (HMECs) or primary astrocytes. HMECs and primary astrocytes were cultured and treated with F5446 as described in example 17. Growth curve, immunoblotting, IF, ChIP experiments were performed as described in previous examples.

[2] = tested on: cancer cell lines and patient-derived glioblastoma cultures; test: Viability of cancer cells after F5446 treatment; type: cell-based, human; conditions: F5446 for 48 hrs (FIG. 9G)
Description: Cell lines and culture conditions: all cancer cell lines were purchased from the American Tissue Culture Collection (ATCC) and grown in recommended culture media. Specifically, MDA-MB-231, BT-549, MCF7, A549, and H446 cells were cultured in RPMI 1640 (Corning), HEK293T, HEK293FT, and HeLa cells were cultured in DMEM (Corning), MDA-MB-231-luc cells were cultured in MEM (Corning), U2OS and HCT116 cells were cultured in McCoy's 5A (Corning). The above media were supplemented with 10% fetal bovine serum (FBS), 2 mM glutamine, and 100 U/mL penicillin and streptomycin. Patient-derived glioma stem cells (GSCs) were obtained (Xie et al., 2018) and cultured in Neurobasal medium (Thermo Fisher Scientific, #11360070) supplemented with B27 without vitamin A (Thermo Fisher Scientific, #A3353501), EGF, and bFGF (20 ng/mL each; R&D Systems), sodium pyruvate (Thermo Fisher Scientific, #11360070), and GlutaMAX (Thermo Fisher Scientific, #35050061). All cells were incubated at 37° C. in 5% CO2. The cell cultures were authenticated by short tandem repeat (STR) analysis.
To assess whether this epigenetic regulatory pathway could potentially be targeted for cancer treatment, SUV39H1 and its chemical inhibitor F5446 were used to perform experiments. IF, qRT-PCR, and growth curve experiments were performed as described in previous examples. […]

[3] = tested on: MDA-MB-231-luc-derived mammary tumors; test: MDA-MB-231-luc orthotopic mammary tumors in immunodeficient mice treated with F5446; type: in vivo, mouse
Description: Animal studies: mice were maintained under pathogen free conditions in 14 hrs light/10 hrs dark cycle with ad libitum access to food and water. All animal handling and procedures used were performed in accordance with protocols approved by the Institutional Animal Care and Use Committee of SBP or UCSD. For intracardiac injections, 10^5 MDA-MB-231-luc cells transduced with lentivirus expressing non-targeting or FBXO44 shRNAs were resuspended in 100 μL DPBS and injected into the left ventricle of 6-week old female athymic nude mice (Envigo no. 069) anesthetized with isoflurane. Metastatic seeding was monitored weekly by intraperitoneal (i.p.) injection of 100 μL of 30 mg/mL D-Luciferin (Xenogen no.)CR-1001) 10 min prior to imaging using the IVIS Spectrum Xenogen Imaging System (Caliper Life Sciences). Images were analyzed using Living Image 3.0 software (Caliper Life Sciences). For ex vivo imaging of tissues, mice were injected with D-Luciferin prior to euthanasia, tissues harvested and placed in 24-well tissue culture plates containing 1 mL of 0.3 mg/mL D-Luciferin and imaged. Organs/tissues were fixed in 10% formalin and subjected to hematoxylin and eosin staining. For orthotopic injections of NSG mice, 3×10^6 MDA-MB-231-luc cells were suspended in 100 μL of PBS and injected into the mammary fat pads of 4- to 6-week-old female mice. For F5446 drug treatments, mice were randomly divided into 3 groups at day 12. The mice were administered vehicle (10% Cremophor EL in PBS) or F5446 at doses of 10 and 20 mg/kg body weight via i.p. injection on days 12, 14, 17, 19, 21 and 24 post-inoculation of cells. Tumor size was measured every 4-5 days (long diameter and short diameter) with a caliper and tumor volume calculated as 0.5×length×width×width. Mice were imaged weekly to monitor tumor growth and metastasis in vivo using an IVIS Spectrum Xenogen Imaging System (Caliper Life Sciences). All mice were euthanized at day 25 except 3 mice were taken out from each group for tumor IHC staining of γH2AX and cleaved Caspase 3 and quantitative RT-PCR analysis at day 21. […]

COC(=O)c1cc2c(n1S(=O)(=O)c1ccc(Cl)cc1)C(=O)C(=O)c1[nH]cc(C(=O)OCc3ccccc3)c1-2 [F5446]
HMEC and astrocyte viability [1]: minimally affected
survival of cancer cell lines and patient-derived glioblastoma cultures [2]: reduced
γH2AX and cleaved Caspase 3 in tumors ([3]; IHC of F5446-treated tumors (FIG. 12K)): dose-dependent increase
mammary tumor growth ([3]; immunocompromised mice, 10 and 20 mg/kg i.p. (FIGS. 12H-12J)): inhibited mammary tumor growth in immunocompromised mice in a dose-dependent manner
expression of REs, IFN α/β, and ISGs in tumors ([3]; qRT-PCR of F5446-treated tumors (FIG. 12L)): upregulated
